Measurements reported in PMC5963591, “Bitopic Binding Mode of an M1 Muscarinic Acetylcholine Receptor Agonist Associated with Adverse Clinical Trial Outcomes” (Molecular Pharmacology, 2018).

Legend:
human M1 mAChR [1] = molecular target: T1, human M1 mAChR (Homo sapiens, UniProt P11229); experiment: IP1 accumulation after receptor alkylation with phenoxybenzamine (functional interaction with ACh)
T1 sequence (P11229 1-460): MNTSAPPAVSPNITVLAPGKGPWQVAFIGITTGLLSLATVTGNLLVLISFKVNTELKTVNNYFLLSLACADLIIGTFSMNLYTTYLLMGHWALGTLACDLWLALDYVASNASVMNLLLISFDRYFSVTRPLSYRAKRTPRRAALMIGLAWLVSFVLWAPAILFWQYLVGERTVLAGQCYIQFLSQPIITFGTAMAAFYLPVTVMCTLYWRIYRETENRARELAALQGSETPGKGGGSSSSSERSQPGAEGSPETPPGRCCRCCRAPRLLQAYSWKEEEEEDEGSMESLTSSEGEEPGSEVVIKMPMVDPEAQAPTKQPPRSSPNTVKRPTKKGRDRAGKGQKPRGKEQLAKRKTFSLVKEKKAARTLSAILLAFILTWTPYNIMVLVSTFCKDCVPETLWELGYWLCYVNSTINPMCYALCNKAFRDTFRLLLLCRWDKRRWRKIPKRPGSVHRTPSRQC

[2] = molecular target: T2, M3 mAChR (isolated rat ileum) (Rattus norvegicus, UniProt P08483); experiment: Isolated rat ileum contraction; details: single experiment
T2 construct: from tissue; host or cells: ileum of adult Wistar rats
Experimental: Adult Wistar rats were humanely euthanized and the left atria and the ileum were placed in an organ bath containing oxygenated Tyrode solution. Measurement of negative inotropic responses in atria or contraction of ileum was performed as described by [Lambrecht et al. (1989)]. For atrial responses, ligands were administered for 5 minutes at 32°C in McEwen’s buffer (pH 7.4) in a bath volume of 10 ml. […] For rat ileum experiments, ligands were administered for 5 minutes at 32°C in Krebs’ buffer (pH 7.4) in a bath volume of 10 ml. Contraction of ileum as a percentage of methacholine-induced contraction was measured, and antagonistic effects were measured by inhibition of methacholine-induced responses.

M2 mAChR = molecular target: T3, M2 mAChR (Homo sapiens, UniProt P08172); experiment: ERK1/2 phosphorylation, CHO cells, M2; assay type: cell-based
T3 construct: expressed in transfected cells; host or cells: CHO

human M1 mAChR [3] = molecular target: T1, human M1 mAChR; experiment: IP-One (IP1) accumulation assay, CHO Flp-In human M1 cells; assay type: cell-based; set-up: expressed in transfected cells; host or cells: CHO Flp-In
Experimental: Stimulation of IP accumulation was determined using the Cisbio IP-One Gq assay kit per the manufacturer’s instructions. […] CHO Flp-In cells stably expressing the human M1 mAChR were grown to confluence in T75 cell culture flasks at 37°C. Cells were washed with warm phosphate-buffered saline and detached using phosphate-buffered saline with 0.1 M EDTA. Detached cells were centrifuged at 1000g and the cells were resuspended in stimulation buffer.
All IP-One stimulations were terminated by the addition of 3 μl/well IP1-d2 solution, followed by 3 μl/well anti–IP1-cryptate solution and incubation for 1 hour at room temperature with shaking.
Functional concentration-response curves were fitted according to a four-parameter logistic equation (to determine minimum and maximum asymptotes, LogEC50, and slope; GraphPad Prism 6). […] In the absence of antagonist ([B] = 0), this equation becomes the standard four-parameter logistic equation for fitting agonist concentration-response data.

humanized M1 DREADD = molecular target: T4, humanized M1 DREADD (Homo sapiens, UniProt P11229, A196G/Y106C); experiment: IP1 accumulation and ERK1/2 phosphorylation at M1 DREADD, CHO Flp-In cells; assay type: cell-based
T4 construct: expressed in transfected cells; host or cells: CHO Flp-In

human M1 mAChR [4] = molecular target: T1, human M1 mAChR; experiment: [3H]-NMS binding interaction studies with BQCA; set-up: expressed in transfected cells; host or cells: CHO Flp-In; details: increasing concentrations of BQCA
Experimental: Prior to the experiment, cells were washed with 100 μl phosphate-buffered saline. […] Binding was terminated by rapid aspiration followed by two washes with 200 μl ice-cold 0.9% NaCl. Bound radioactivity was determined by liquid scintillation (Ultima Gold; PerkinElmer, Boston, MA) counting. Nonspecific binding was determined in the presence of 10 μM atropine.

wild-type M1 mAChR = molecular target: T5, wild-type M1 mAChR (Homo sapiens, UniProt P11229); experiment: Receptor phosphorylation at serine 228, M1 wild type, CHO Flp-In cells; assay type: cell-based
T5 construct: HA; expressed in transfected cells; host or cells: CHO Flp-In

humans = test system: humans; set-up: method as in Nathan et al., 2013; details: ref Nathan et al., 2013; cited from earlier work
C57Bl/6J mice = experiment: Contextual fear conditioning, scopolamine-induced deficit; assay type: in vivo, mouse; details: escalating i.p. doses with scopolamine […]
Experimental: C57Bl/6J male mice (aged 8–12 weeks) were acclimatized to the behavioral testing suite at least 2 hours prior to the test. […] Mice were placed in the conditioning chamber (ANY-maze Fear Conditioning System; Stoelting, Dublin, Ireland); after a 2-minute adaptation period, they received three tone/foot shock pairings where the foot shock (unconditioned stimulus; 2 seconds; 0.4 mA) always co-terminated with a tone (conditioned stimulus; 2.8 kH; 85 dB; 30 seconds). The conditioned stimulus–unconditioned stimulus pairings were separated by 1-minute intervals. After the mice completed training, they remained in the conditioning chamber for 1 minute and were then returned to their home cages. The next day, the mice were placed back in the conditioning chamber, and time spent immobile was recorded for 3 minutes to assess context-dependent learning. Data were analyzed using ANY-maze software (Stoelting).

T2 sequence (P08483 whole entry): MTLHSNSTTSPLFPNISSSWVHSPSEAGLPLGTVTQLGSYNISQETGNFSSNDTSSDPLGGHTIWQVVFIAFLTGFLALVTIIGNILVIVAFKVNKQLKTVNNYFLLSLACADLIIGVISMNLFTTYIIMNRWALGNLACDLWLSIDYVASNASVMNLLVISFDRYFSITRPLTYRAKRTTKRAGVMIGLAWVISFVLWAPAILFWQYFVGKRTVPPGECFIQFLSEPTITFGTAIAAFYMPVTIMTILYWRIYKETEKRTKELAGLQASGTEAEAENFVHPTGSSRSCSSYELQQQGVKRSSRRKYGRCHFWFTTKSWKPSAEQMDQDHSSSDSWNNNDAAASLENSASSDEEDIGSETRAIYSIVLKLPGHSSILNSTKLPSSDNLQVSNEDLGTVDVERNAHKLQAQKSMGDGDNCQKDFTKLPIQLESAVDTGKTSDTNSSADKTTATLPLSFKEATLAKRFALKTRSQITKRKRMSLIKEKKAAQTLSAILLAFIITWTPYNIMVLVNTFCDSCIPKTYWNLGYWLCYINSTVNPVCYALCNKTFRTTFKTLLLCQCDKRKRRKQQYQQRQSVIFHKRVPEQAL
T3 sequence (P08172 whole entry): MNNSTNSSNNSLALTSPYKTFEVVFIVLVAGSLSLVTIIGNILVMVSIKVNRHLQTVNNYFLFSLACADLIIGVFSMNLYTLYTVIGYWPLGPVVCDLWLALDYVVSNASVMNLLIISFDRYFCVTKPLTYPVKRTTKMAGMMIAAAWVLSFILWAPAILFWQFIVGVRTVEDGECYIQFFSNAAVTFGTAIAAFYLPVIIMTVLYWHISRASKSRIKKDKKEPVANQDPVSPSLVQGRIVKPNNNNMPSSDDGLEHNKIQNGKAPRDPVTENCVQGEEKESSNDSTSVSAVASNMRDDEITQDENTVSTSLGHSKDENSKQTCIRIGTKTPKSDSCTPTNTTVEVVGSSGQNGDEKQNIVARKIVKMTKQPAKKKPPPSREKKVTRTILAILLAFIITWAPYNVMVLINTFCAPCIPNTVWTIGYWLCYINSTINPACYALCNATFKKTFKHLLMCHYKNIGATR
T4 sequence (P11229 whole entry Y106C/A196G): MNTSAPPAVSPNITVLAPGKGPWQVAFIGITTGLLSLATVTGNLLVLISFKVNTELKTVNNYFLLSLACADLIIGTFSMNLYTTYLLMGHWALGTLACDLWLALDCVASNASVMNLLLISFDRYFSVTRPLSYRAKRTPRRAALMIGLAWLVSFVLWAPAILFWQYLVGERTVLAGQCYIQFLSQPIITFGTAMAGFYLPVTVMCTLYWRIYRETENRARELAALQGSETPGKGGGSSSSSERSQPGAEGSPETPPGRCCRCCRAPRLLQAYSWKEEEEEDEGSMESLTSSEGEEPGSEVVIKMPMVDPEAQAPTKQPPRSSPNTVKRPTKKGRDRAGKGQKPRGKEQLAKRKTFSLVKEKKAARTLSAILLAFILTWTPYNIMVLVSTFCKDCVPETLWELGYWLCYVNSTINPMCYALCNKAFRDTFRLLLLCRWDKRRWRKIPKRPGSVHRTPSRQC

- Kb (human M1 mAChR [1]): 0.631 µM
- agonist effect in IP1 accumulation after phenoxybenzamine (human M1 mAChR [1]; cells treated with 3 μM phenoxybenzamine): no agonist effect
- EC50 [2]: 7 µM
- rat ileum contraction, % of maximal methacholine-induced contraction [2]: approximately 50%
- IC50 ([2]; read-out: IC50, inhibition of methacholine-induced contraction of rat ileum): 46 µM
- functional activity in ERK1/2 phosphorylation (M2 mAChR): partial agonist activity
- Emax (human M1 mAChR [3]; % of the maximal response elicited by ACh, read-out: IP1 accumulation, maximal response relative to ACh): ~90%
- IP1 Emax (human M1 mAChR [3]; CHO Flp-In human M1 cells): 90.1 ± 2.9
- EC50 (human M1 mAChR [3]; CHO Flp-In human M1 cells, read-out: IP1 pEC50 (converted)): 0.0794 µM
- IP1 Accumulation ΔLog10(τ/KA) (human M1 mAChR [3]; normalized to reference ligand ACh): 0.3 ± 0.2
- IP1 Accumulation Log10(τ/KA) (human M1 mAChR [3]; transduction coefficient, wild-type M1 mAChR): 7.4 ± 0.2
- potency and efficacy at the M1 DREADD compared with the wild-type receptor (humanized M1 DREADD): comparable potency and efficacy
- modulation by BQCA of the displacement of [^3H]-NMS (human M1 mAChR [4]): not modulated
- pSer228 immunoreactivity (wild-type M1 mAChR): concentration-dependent increase
SMILES: Cc1cc(F)c2[nH]c(=O)n(C3CCN(C4CCOCC4)CC3)c2c1 [GSK1034702, 7-fluoro-5-methyl-3-[1-(oxan-4-yl)piperidin-4-yl]-1H-benzimidazol-2-one]
- adverse effects (humans): induced gastrointestinal adverse effects
- effect on cognitive function (humans): positive effects on cognitive function
- shape of the dose response on learning and memory (C57Bl/6J mice): bell shaped
